Reference: patent US10072023B2, “Diarylethene compounds and uses thereof” (SWITCH MATERIALS, INC., priority 2011, dated 2018)

Assay: Absorbance at photostationary state (PSS) under simulated sunlight or 365 nm light
Assay type: physicochemical
Parameters: λ max: unit not given here
Details: for Absorbance at PSS, 365 nm: 365 nm light source; for Absorbance at PSS, 365 nm / Absorbance at PSS, full / Absorbance at PSS, +UV / λ max: 2.0×10^−5 M in triglyme; for sensitivity index: ratio of PSS under 365 nm light to PSS under full spectrum light (without UV blocking film); for Absorbance at PSS, full: simulated sunlight (QSUN solar simulator), no UV blocking film; for Absorbance at PSS, +UV: simulated sunlight with UV blocking film (cutoff 370 nm); for λ max: wavelength of maximum absorbance in the visible range, ring-closed isoform
Description: Absorbance at a PSS for selected compounds was measured at 2.0×10^−5 M in triglyme in the absence (full) or presence (+UV) of a UV blocking film with a UV cutoff wavelength of 370 nm (10% transmission at 370 nm), using simulated sunlight (QSUN solar simulator) as a light source, or a 365 nm light source; these PSS are reported in Tables 1.5. […] “Switch” refers to the ability (yes or no) of the compound to be reversibly converted under photochromic and electrochromic conditions between a ring-open isomer and ring-closed isomer.
A sensitivity index (SI) is a ratio of the PSS under 365 nm light to the PSS under full spectrum light (without UV blocking film). SI is an indicator of the sensitivity of the compound to the composition of the incident light (a change in the ratio of UV and visible components)—photochemical ring-opening is induced by a portion of the visible light spectrum.
Photostationary State (PSS) UV/Vis spectra are obtained using an OceanOptics™ Spectrophotometer until absorption in the visible region of the spectrum stabilizes. A 2×10^−5M solution of compound in solvent is prepared, and photofaded using visible light until absorption in the visible region of the spectrum stabilizes. The sample is then irradiated with simulated sunlight (QSUN SS-150 Solar Simulator with xenon arc lamp) until the absorption spectrum stabilizes. To obtain PSS in the presence of a UV blocking film, a second sample is prepared and irradiated as described, with a UV blocking film inserted in the light path when irradiating.

Compound | Absorbance at PSS, 365 nm | sensitivity index | Absorbance at PSS, full | Absorbance at PSS, +UV | λ max
CC(C)(C)c1ccc(-c2cc(C3=C(c4cc(-c5ccc(C(C)(C)C)s5)sc4-c4ccc(OCCCO)cc4)C(F)(F)C(F)(F)C3(F)F)c(-c3ccc(OCCCO)cc3)s2)s1 [S111, 3,3′-(4,4′-(4,4′-(perfluorocyclopent-1-ene-1,2-diyl)bis(5′-tert-butyl-2,2′-bithiophene-5,4-diyl))bis(4,1-phenylene)bis(oxy))dipropan-1-ol] | 0.322 | 1.10 | 0.292 | 0.192 | 646
CC(C)(C)COc1ccc(-c2cc(C3=C(c4cc(-c5ccc(OCC(C)(C)C)cc5)sc4-c4ccc(OCC(C)(C)C)cc4)C(F)(F)C(F)(F)C3(F)F)c(-c3ccc(OCC(C)(C)C)cc3)s2)cc1 [S095, 3,3′-(perfluorocyclopent-1-ene-1,2-diyl)bis(2,5-bis(4-(neopentyloxy)phenyl)thiophene)] | 0.279 | 1.74 | 0.16 | 0.086 | 625
COc1cc(OC)cc(-c2cc(C3=C(c4cc(-c5cc(OC)cc(OC)c5)sc4-c4cc(OC)cc(OC)c4)C(F)(F)C(F)(F)C3(F)F)c(-c3cc(OC)cc(OC)c3)s2)c1 [S097, 3,3′-(perfluorocyclopent-1-ene-1,2-diyl)bis(2,5-bis(3,5-dimethoxyphenyl)thiophene)] | 0.206 | 2.82 | 0.073 | 0.029 | 611
CC(C)Oc1ccc(-c2cc(C3=C(c4cc(-c5ccc(OC(C)C)cc5)sc4-c4ccc(OC(C)C)cc4)C(F)(F)C(F)(F)C3(F)F)c(-c3ccc(OC(C)C)cc3)s2)cc1 [S092, 3,3′-(perfluorocyclopent-1-ene-1,2-diyl)bis(2,5-bis(4-isopropoxyphenyl)thiophene)] | 0.307 | 1.90 | 0.162 | 0.093 | 627
Cc1ccc(-c2ccc(-c3cc(C4=C(c5cc(-c6ccc(-c7ccc(C)s7)s6)sc5-c5ccc(C)s5)C(F)(F)C(F)(F)C4(F)F)c(-c4ccc(C)s4)s3)s2)s1 [S034, 3′,3″″′-(perfluorocyclopent-1-ene-1,2-diyl)bis(5,5″′-dimethyl-2,2′:5′,2″:5″,2″′-quaterthiophene)] | 0.468 | 1.73 | 0.271 | 0.246 | 690
CC(C)(C)c1ccc(-c2cc(C3=C(c4cc(-c5ccc(C(C)(C)C)s5)sc4-c4ccc(OCCCCC(=O)O)cc4)C(F)(F)C(F)(F)C3(F)F)c(-c3ccc(OCCCCC(=O)O)cc3)s2)s1 [S141, 5,5′-(4,4′-(4,4′-(perfluorocyclopent-1-ene-1,2-diyl)bis(5′-tert-butyl-2,2′-bithiophene-5,4-diyl))bis(4,1-phenylene)bis(oxy))dipentanoic acid] | 0.377 | – | 0.282 | 0.183 | –
C[Si](C)(C)c1ccc(-c2cc(C3=C(c4cc(-c5ccc([Si](C)(C)C)s5)sc4-c4ccc([Si](C)(C)C)s4)C(F)(F)C(F)(F)C3(F)F)c(-c3ccc([Si](C)(C)C)s3)s2)s1 [S135, 3′,3″″-(perfluorocyclopent-1-ene-1,2-diyl)bis(5,5″-bis(trimethylsilyl)-2,2′:5′,2″-terthiophene)] | 0.387 | 1.22 | 0.318 | 0.224 | 648
COCCOc1ccc(-c2sc(-c3ccc(C(C)(C)C)s3)cc2C2=C(c3cc(-c4ccc(C(C)(C)C)s4)sc3-c3ccc(OCCOC)cc3)C(F)(F)C(F)(F)C2(F)F)cc1 [S104, 4,4″-(perfluorocyclopent-1-ene-1,2-diyl)bis(5′-(tert-butyl)-5-(4-(2-methoxyethoxy)phenyl)-2,2′-bithiophene)] | 0.383 | 1.28 | 0.299 | 0.203 | 645
